Patent US20240300902A1, “NOVEL TRANSGLUTAMINASE 2 INHIBITOR AND USE THEREOF” (MD BIOLAB CO., LTD., priority 2021, published 2024)

What was measured:
[1] = test system: MDA-MB231 breast cancer cells; test: Antitumor effects in in vivo breast cancerous tumors, MDA-MB231 xenograft; parameters: species or system mice
Experimental: To examine the antitumor effect of LDD3959, CanN.Cg-Foxn1nu/CrljOri mice were used as experimental animals. The mice were xenografted with MDA-MB231 breast cancer cells to induce tumors. The MDA-MB231 breast cancer cell-transplanted group was divided into two groups: an oral administration group and an intraperitoneal administration group. In this test, the oral administration was performed daily and the intraperitoneal administration was performed twice a week.

a total of 8 tumors = test: OncoPanel assay conducted by Eurofins; format: cell-based
Experimental: The OncoPanel™ assay conducted by Eurofins confirmed the antitumor efficacy of LDD3959 in a total of 8 tumors at concentrations of 10 μM or lower.

[2] = Toxicity by single oral administration; format: in vivo, ICR mice; settings: 500 to 2000 mg/kg
Experimental: LDD3959 was orally administered once for each concentration in the range of 500 to 2000 mg/kg, and adverse events (body weight changes, feed intake changes, general appearance changes) were checked for 2 weeks. After 2 weeks of administration, the mice were sacrificed. Then, the mice underwent hematological examination and measurement of weight change of each organ thereof. In addition, the same experiment was performed on five ICR female mice and five ICR male mice to identify gender-dependent differences.

O=C1C(Cl)=C(Cl)C(=O)c2[nH]c(-c3ccc(Br)c(F)c3)nc21 [LDD3959, 2-(4-bromo-3-fluorophenyl)-5,6-dichloro-1H-benzo[d]imidazole-4,7-dione]
antitumor effect ([1]; intraperitoneal administration twice a week): concentration-dependent antitumor effects | antitumor effect ([1]; oral administration daily): concentration-dependent antitumor effects | concentration with antitumor efficacy (a total of 8 tumors): ≤ 10 µM | deaths ([2]; 2 weeks, female and male ICR mice): no deaths of the subjects occurred | adverse responses in blood ([2]; after 2 weeks): no specific adverse responses occurred in blood
